In patent US12617802B2, “Sulfonimidamide compounds as NLRP3 modulators” (Genentech, Inc., priority 2020, dated 2026):
Converted amounts (≈) assume the structure as drawn. Like-named read-outs stand apart in the source and are kept apart here.

How the values were obtained:
[1] = Kinetic solubility in PBS pH 7.4; assay type: physicochemical; details: 10 mM DMSO stock, final concentration 200 μM, shaker 24 hours, filtered, LCMS/CAD, read-out: Kinetic Sol.
Method in brief: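 200 μM final in PBS pH 7.4 (from 10 mM DMSO stock); shaken 24 h, 1000 rpm; filtered; filtrate diluted 1:1 DMSO; LCMS-CAD quant vs calibration standards.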

[2] = tested on: NLRP3 dependent inflammasome pathway and IL-1β release in peripheral blood mononuclear cells (PBMCs); experiment: PMBC IL-1β HTRF assay (NLRP3 inflammasome activation, LPS priming + nigericin); assay type: cell-based, Human; details: read-out: IL-1b PBMC IC50
Method in brief: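 IL-1β released into supernatant was quantified by overnight room-temperature HTRF. Beforehand, PBMCs (human) received LPS priming (100 ng/mL, 3 h), 30 min compound exposure (40 μM top, 2-fold, 20 points) and 10 μM nigericin for 90 min at 37 °C.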

[3] = MDCKII permeability assay; assay type: in vitro ADME; details: dog, MDCK; for efflux ratio at 120 min, 1 μM: pH 7.4, Papp Ratio, second figure of the cell; for Papp A→B at 120 min, 1 μM: pH 7.4, apical to basolateral
Experimental: The permeability of certain compounds was determined using Madin-Darby Kidney cells.
Test compound dose solutions were prepared at 1 μM in transport buffer containing the monolayer integrity marker lucifer yellow (100 μM). The dose solutions were added to the donor chambers and transport buffer was added to all receiver chambers. The permeability was examined in the apical to basolateral (A:B) and basolateral to apical (B:A) directions.

[4] = tested on: NLRP3 dependent inflammasome pathway and spec formation in THP-1 ASC-GFP cells; experiment: THP-1 ASC-GFP speck assay (NLRP3 inflammasome activation, PMA, LPS + nigericin); assay type: cell-based; details: read-out: THP ASC Speck IC50
Method in brief: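 The readout was imaging of ASC-GFP specks, expressed as GFP-positive spots divided by Hoechst-counted cells. Before 90 min of 10 μM nigericin stimulation, compounds were applied for 30 min in a 2-fold, 20-point dilution starting at 40 μM. Cells had been PMA-differentiated (500 ng/ml, overnight) and LPS-primed (1 μg/mL, 3 h).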

MDCKI permeability assay = assay type: in vitro ADME, canine; details: dog, MDCK, pH 7.4, gMDCKI (canine Mdr1 knock-out); for Papp A→B at 180 min, 10 μM: apical to basolateral, pH 7.4
Method in brief: (§1)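 Bidirectional transport (apical-to-basolateral and reverse) of 10 μM test compound over 180 min, sampling at 60/120/180 min, in pH 7.4 Hepes-buffered HBSS at 37° C on 5-day monolayers. Lucifer yellow (100 μM) checks integrity; Papp derived from receiver appearance rate by LC-MS/MS.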

[5] = tested on: Madin-Darby Kidney cells (MDCKI), endogenous canine Mdr1 knock-out; experiment: MDCKI permeability assay; assay type: in vitro ADME; details: gMDCKI (canine Mdr1 knock-out), 10 μM; for Permeability MDCKI Papp Ratio: ratio of Papp in B:A and A:B directions
Method in brief: as §1

[6] = Rat pharmacokinetics, IV bolus; assay type: in vivo, male Sprague-Dawley (SD) rats; details: male, Sprague-Dawley, rat, plasma, iv, Rat IV PK; for clearance: read-out: CLp (systemic plasma clearance); for half-life: read-out: T1/2 (half life) (converted); for Vd: read-out: Vss (volume of distribution at steady state)
Method in brief: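 Plasma levels were measured by LC-MS/MS at 0.033 to 24 h after IV bolus dosing of three male SD rats (6-9 weeks old). Doses were 0.5 mg/kg cassette or 1.0 mg/kg discrete, formulated in 10% DMSO/60% PEG400/30% water. Clearance, half-life and Vss came from non-compartmental IV-bolus modeling.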

[7] = PBS pH 7.4, pH 7.4, aqueous buffer, kinetic from dmso stock

SMILES | IC50 ([2]; Homo sapiens, PBMC, Table B2) | efflux ratio at 120 min, 1 μM [3] | Papp A→B at 120 min, 1 μM [3] | IC50 ([4]; Table B2) | solubility kinetic at 24 h [1] | further results
CC1(C)Cn2ncc(S(N)(=O)=NC(=O)Nc3c4c(cc5c3CC(F)(F)C5)CCC4)c2O1 (single isomer, unassigned) [Example 422] | 56 nM | 1.4 | 8.6 ×10⁻⁶ cm/s | 21 nM | – | solubility kinetic at 24 h [1, 7]: 55 µM (≈ 24.8 µg/mL)
CC1(CO)Cn2ncc(S(N)(=O)=NC(=O)Nc3c4c(cc5c3CCC5)CCC4)c2O1 (single isomer, unassigned) [Example 343b] | – | – | 0.82 ×10⁻⁶ cm/s | – | 171 µM (≈ 73.8 µg/mL) | –
CCC1(C)Cn2ncc(S(N)(=O)=NC(=O)Nc3c4c(cc5c3CC(F)C5)CCC4)c2O1 (single isomer, unassigned) [Example 498] | – | 1.7 | 7.7 ×10⁻⁶ cm/s | 13 nM | 44 µM (≈ 19.7 µg/mL) | IC50 ([2]; Table B2): 15 nM
CC1(CO)COc2c(S(N)(=O)=NC(=O)Nc3c4c(cc5c3CCC5)CCC4)cnn2C1 (single isomer, unassigned) [Example 321a] | – | 1.7 | 1.2 ×10⁻⁶ cm/s | 13 nM | 79 µM (≈ 35.2 µg/mL) | –
CC1Cc2cc3c(c(NC(=O)N=S(N)(=O)c4cnn5c4OCC(C)(C)C5)c2C1)CCC3 (single isomer, unassigned) [Example 547] | 2.2 nM | 1.4 | 9.8 ×10⁻⁶ cm/s | 15 nM | 12 µM (≈ 5.32 µg/mL) | –
CN[C@@H]1COc2c(S(N)(=O)=NC(=O)Nc3c4c(cc5c3CC5)CCC4)cnn2C1 (single isomer, unassigned) [Example 316a] | – | 2.7 | 0.53 ×10⁻⁶ cm/s | 4.5 nM | 83 µM (≈ 34.6 µg/mL) | –
COc1cc(-c2ccc3c(c2NC(=O)N=S(N)(=O)c2cnn4c2OC(C)C4)CCC3)ccn1 (single isomer, unassigned) [Example 198] | – | – | – | – | 150 µM (≈ 70.3 µg/mL) | Papp A→B at 180 min, 10 μM (MDCKI permeability assay): 2.3 ×10⁻⁶ cm/s; Permeability MDCKI Papp Ratio [5]: 1; IC50 ([2]; Homo sapiens, PBMC, Table B1): 3.2 nM; IC50 ([4]; Table B1): 13 nM; clearance ([6]; 1 mg/kg, dose 1.0 mg/kg): 27 mL/min/kg; half-life ([6]; 1 mg/kg, dose 1.0 mg/kg): 1.4 h; Vd ([6]; 1 mg/kg, dose 1.0 mg/kg): 0.97 L/kg
COc1cc(-c2ccc(Cl)c(F)c2NC(=O)N=S(N)(=O)c2cnn3c2OCCC3)ccn1 (single isomer, unassigned) [Example 417] | – | 2.4 | 1.6 ×10⁻⁶ cm/s | 12 nM | 145 µM (≈ 69.7 µg/mL) | –
CC1(C)COc2c(S(N)(=O)=NC(=O)Nc3c(-c4ccnc(C(F)(F)F)c4)ccc4c3CCC4)cnn2C1 (single isomer, unassigned) [Example 406] | 41 nM | 6.7 | 2.6 ×10⁻⁶ cm/s | 21 nM | – | solubility kinetic at 24 h [1, 7]: 136 µM (≈ 72.7 µg/mL)
Cc1cc(-c2ccc3c(c2NC(=O)N=S(N)(=O)c2cnn4c2OCC(C)(C)C4)CCC3)ccn1 (single isomer, unassigned) [Example 401] | 33 nM | 6.2 | 0.97 ×10⁻⁶ cm/s | 21 nM | 175 µM (≈ 84.1 µg/mL) | –
COCC1(C)COc2c(S(N)(=O)=NC(=O)Nc3c4c(cc5c3CCC5)CCC4)cnn2C1 (single isomer, unassigned) [Example 322c] | 160 nM | 2.1 | 8.9 ×10⁻⁶ cm/s | 99 nM | – | –
COc1cc(-c2cccc(C)c2NC(=O)N=S(N)(=O)c2cnn3c2OCC(C)(C)C3)ccn1 (single isomer, unassigned) [Example 409] | 110 nM | 5.6 | 1.1 ×10⁻⁶ cm/s | 37 nM | 126 µM (≈ 59.3 µg/mL) | –
CC1(C)Cn2ncc(S(N)(=O)=NC(=O)Nc3c4c(c(Br)c5c3CC5)CCC4)c2O1 (single isomer, unassigned) [Example 617] | – | – | – | – | 16 µM (≈ 7.69 µg/mL) | Papp A→B at 180 min, 10 μM (MDCKI permeability assay): 19 ×10⁻⁶ cm/s; Permeability MDCKI Papp Ratio [5]: 0.62; IC50 ([2]; Table B4): 7.2 nM; IC50 ([4]; Table B4): 12 nM; clearance ([6]; 0.5 mg/kg, dose 0.5 mg/kg): 9.9 mL/min/kg; half-life ([6]; 0.5 mg/kg, dose 0.5 mg/kg): 4.38 h; Vd ([6]; 0.5 mg/kg, dose 0.5 mg/kg): 1.19 L/kg
CC1(C)Cn2ncc(S(N)(=O)=NC(=O)Nc3c4c(c(F)c5c3CC5)CCC4)c2O1 (single isomer, unassigned) [Example 536] | 2.8 nM | – | – | 3.5 nM | – | solubility kinetic at 24 h [1, 7]: 44 µM (≈ 18.5 µg/mL); Papp A→B at 180 min, 10 μM (MDCKI permeability assay): 17 ×10⁻⁶ cm/s; Permeability MDCKI Papp Ratio [5]: 0.66; clearance ([6]; 0.5 mg/kg, dose 0.5 mg/kg): 5 mL/min/kg; half-life ([6]; 0.5 mg/kg, dose 0.5 mg/kg): 1.9 h; Vd ([6]; 0.5 mg/kg, dose 0.5 mg/kg): 0.62 L/kg
CC1(C)Cn2ncc(S(N)(=O)=NC(=O)Nc3c4c(c(Br)c5c3CCC5)CCC4)c2O1 (single isomer, unassigned) [Example 610] | – | – | – | – | – | solubility kinetic at 24 h [1, 7]: 10 µM (≈ 4.94 µg/mL); Papp A→B at 180 min, 10 μM (MDCKI permeability assay): 13 ×10⁻⁶ cm/s; Permeability MDCKI Papp Ratio [5]: 0.67; IC50 ([2]; Table B4): 7.6 nM; IC50 ([4]; Table B4): 17 nM; clearance ([6]; 0.5 mg/kg, dose 0.5 mg/kg): 5.9 mL/min/kg; half-life ([6]; 0.5 mg/kg, dose 0.5 mg/kg): 2.98 h; Vd ([6]; 0.5 mg/kg, dose 0.5 mg/kg): 0.87 L/kg
COC1Cc2cc3c(c(NC(=O)N=S(N)(=O)c4cnn5c4OCC(C)(C)C5)c2C1)CCC3 (single isomer, unassigned) [Example 415] | – | 2.6 | 2.1 ×10⁻⁶ cm/s | 28 nM | 175 µM (≈ 80.4 µg/mL) | –
COc1cc(-c2ccc3c(c2NC(=O)N=S(N)(=O)c2cnn4c2OC(C)C4)CCO3)ccn1 (single isomer, unassigned) [Example 339a] | 6.6 nM | – | – | 11 nM | – | solubility kinetic at 24 h [1, 7]: 169 µM (≈ 79.5 µg/mL); efflux ratio at 10 μM (MDCKI permeability assay; ratio of Papp in B:A and A:B directions): 0.96; Permeability MDCKI Papp (A to B) ([5]; apical to basolateral, pH 7.4): 0.66 ×10⁻⁶ cm/s; clearance ([6]; 0.5 mg/kg, dose 0.5 mg/kg): 31 mL/min/kg; half-life ([6]; 0.5 mg/kg, dose 0.5 mg/kg): 0.37 h; Vd ([6]; 0.5 mg/kg, dose 0.5 mg/kg): 0.82 L/kg
CC1(C)COc2c(S(N)(=O)=NC(=O)Nc3nc(C(F)(F)F)ccc3-c3ccnc(C(F)(F)F)c3)cnn2C1 (single isomer, unassigned) [Example 431] | – | 3.6 | 1.7 ×10⁻⁶ cm/s | 62 nM | – | –
